pIC50: −log10 of the molar value.
Molecular target: human SGLT1 (Homo sapiens (Human), UniProt P13866)
Assay: SGLT1 inhibitory activity: 14C-AMG uptake into CHO-K1 cell line stably expressing human SGLT1
Assay type: cell-based
Settings: 14C-AMG uptake, CHO-K1 cells expressing human SGLT1
Outline: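 Human SGLT1 was stably expressed in CHO-K1 cells. Cells were first held 20 min in sodium-free buffer, then exposed to compound in Na(+)/BSA buffer with tracer and AMG (2 mM in the added solution).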

Sequence of human SGLT1 (P13866 whole entry): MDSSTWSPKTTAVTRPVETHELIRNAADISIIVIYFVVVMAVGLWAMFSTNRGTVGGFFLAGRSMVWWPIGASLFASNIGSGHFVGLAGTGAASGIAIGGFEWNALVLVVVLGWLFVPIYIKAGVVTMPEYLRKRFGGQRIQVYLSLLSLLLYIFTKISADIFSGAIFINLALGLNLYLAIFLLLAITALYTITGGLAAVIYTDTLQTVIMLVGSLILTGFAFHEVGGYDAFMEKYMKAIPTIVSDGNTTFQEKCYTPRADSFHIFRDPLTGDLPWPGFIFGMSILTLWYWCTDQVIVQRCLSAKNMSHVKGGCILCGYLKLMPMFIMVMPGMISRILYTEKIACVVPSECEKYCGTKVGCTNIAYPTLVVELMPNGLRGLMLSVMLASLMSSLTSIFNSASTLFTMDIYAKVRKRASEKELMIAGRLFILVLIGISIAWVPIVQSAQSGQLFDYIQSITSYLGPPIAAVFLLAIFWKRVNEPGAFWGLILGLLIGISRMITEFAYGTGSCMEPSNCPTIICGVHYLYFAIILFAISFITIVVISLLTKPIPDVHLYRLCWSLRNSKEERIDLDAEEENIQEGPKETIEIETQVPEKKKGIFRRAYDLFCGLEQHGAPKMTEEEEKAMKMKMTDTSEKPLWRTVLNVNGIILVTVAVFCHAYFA

SMILES | pIC50
CCCc1cccc(-c2cc(NC(=O)C3CNC(=O)C3)nn2CC)c1 (racemic) [Example 24] | 6.89
O=C1C[C@@H](C(=O)Nc2cc(-c3cccc(OCC(F)(F)F)c3)n(-c3ccccc3Cl)n2)CN1 [Example 214] | 8.64
O=C1C[C@@H](C(=O)Nc2cc(C3CCCCCC3)n(-c3ccccc3)n2)CN1 [Example 62] | 6.33
O=C1C[C@H](C(=O)Nc2cc(C3CCCCC3)n(-c3ccccc3)n2)CN1 [Example 41] | 5.72
CC(C)(C)c1cccc(-c2cc(NC(=O)[C@H]3CNC(=O)C3)nn2-c2ccccc2)c1 [Example 25] | 8.74
Cc1cccc(-n2nc(NC(=O)[C@H]3CNC(=O)C3)cc2-c2cccc(C(C)(C)C)c2)c1 [Example 127] | 8.85
Cc1ccc(-n2nc(NC(=O)[C@H]3CNC(=O)C3)cc2-c2cccc(C(F)(F)F)c2)cc1 [Example 230] | 7.92
CCC(C)(C)c1cccc(-c2cc(NC(=O)[C@@H]3CNC(=O)C3)nn2-c2ccccc2)c1 [Example 53] | 8.42
Cc1ccccc1-c1cc(NC(=O)[C@H]2CNC(=O)C2)nn1-c1ccccc1 [Example 56] | 4.84
CCC(F)(F)c1cccc(-c2cc(NC(=O)[C@H]3CNC(=O)[C@@H]3C)nn2-c2ccc(F)cc2)c1 [Example 172] | 8.26
CCC(C)(C)c1cccc(-c2cc(NC(=O)[C@H]3CNC(=O)C3)nn2-c2ccccc2)c1 [Example 52] | 8.43
CC(C)C(F)(F)c1cccc(-c2cc(NC(=O)[C@H]3CNC(=O)C3)nn2-c2ccc(Cl)cc2)c1 [Example 158] | 8.47
C[C@H]1C(=O)NC[C@@H]1C(=O)Nc1cc(-c2cccc(C(F)(F)F)c2)n(-c2ccccc2F)n1 [Example 229] | 8.51

Same assay, conditions: 14C-AMG uptake, CHO-K1 cells stably expressing human SGLT1

SMILES | pIC50
C[C@@H](OCc1cc(F)cc(-c2cc(NC(=O)[C@@H]3CNC(=O)C3)nn2-c2ccccc2F)c1)C(F)(F)F [Example 237, (S)-5-oxopyrrolidine-3-carboxylic acid{1-(2-fluorophenyl)-5-[3-fluoro-5-((R)-2,2,2-trifluoro-1-methylethoxymethyl)phenyl]-1H-pyrazol-3-yl}amide] | 8.41
CCCOc1ccc(-n2nc(NC(=O)[C@@H]3CNC(=O)C3)cc2-c2cccc(CCC)c2)cc1 [Example 383] | 7.85
CC(C)(OCc1cc(F)cc(-c2cc(NC(=O)[C@H]3CNC(=O)N3)nn2-c2ccc(Cl)cc2)c1)C(F)(F)F [Example 603] | 7.80
CCC1C(=O)NCC1C(=O)Nc1cc(-c2cccc(OC(F)(F)F)c2)n(-c2ccccc2)n1 (single isomer, unassigned) [Example 308] | 7.80
O=C1CCC(C(=O)Nc2cc(-c3cccc(COCC(F)(F)F)c3)n(-c3ccccc3)n2)CN1 (single isomer, unassigned) [Example 560] | 7.62
CCCc1cccc(-c2cc(NC(=O)[C@@H]3CNC(=O)C3)nn2-c2cccc(OCC3(C)COC3)c2)c1 [Example 491] | 8.19
CC(C)Oc1cc(-n2nc(NC(=O)[C@@H]3CNC(=O)C3)cc2-c2cccc(COCC(F)(F)F)c2)ccc1F [Example 418] | 8.63
CCOc1cc(F)cc(-n2nc(NC(=O)[C@@H]3CNC(=O)C3)cc2-c2cccc(OC(F)(F)F)c2)c1 [Example 525] | 7.74
CCCc1cccc(-c2cc(NC(=O)[C@@H]3CNC(=O)C3)nn2-c2ccc(OCC)cc2)c1 [Example 372] | 7.85
O=C1C[C@H](C(=O)Nc2cc(-c3cccc(OCCC(F)(F)F)c3)n(-c3ccccc3)n2)CN1 [Example 272] | 7.43
C[C@@H](OCc1cc(Cl)cc(-c2cc(NC(=O)[C@H]3CNC(=O)N3)nn2-c2ccc(F)cc2)c1)C(F)(F)F [Example 598] | 7.33
CCCc1cccc(-c2cc(NC(=O)[C@@H]3CNC(=O)C3)nn2-c2ccc(C(C)C)cc2)c1 [Example 363] | 7.89
C[C@@H](OCc1cc(F)cc(-c2cc(NC(=O)C3CCC(=O)NC3)nn2-c2ccc(Cl)cc2)c1)C(F)(F)F (stereo partly drawn) [Example 572] | 8.29
O=C1C[C@H](C(=O)Nc2cc(-c3cccc(OCC(F)(F)F)c3)n(-c3ccccc3)n2)CN1 [Example 260] | 7.64
CC(OCc1cccc(-c2cc(NC(=O)[C@@H]3CNC(=O)C3)nn2-c2ccccc2)c1)(C(F)(F)F)C(F)(F)F [Example 353] | 7.80
CC(C)COc1cccc(-c2cc(NC(=O)[C@@H]3CNC(=O)C3)nn2-c2ccccc2)c1 [Example 286] | 7.52
CC(C)Oc1ccc(F)c(-n2nc(NC(=O)[C@@H]3CNC(=O)C3)cc2-c2cccc(CO[C@H](C)C(F)(F)F)c2)c1 [Example 464] | 8.85
CC(C)Oc1ccc(F)c(-n2nc(NC(=O)[C@@H]3CNC(=O)C3)cc2-c2cccc(COCC(F)(F)F)c2)c1 [Example 461] | 8.85
CC(C)OCc1cccc(-c2cc(NC(=O)[C@H]3CNC(=O)C3)nn2-c2ccccc2)c1 [Example 311] | 7.76
CCCc1cccc(-c2cc(NC(=O)[C@@H]3CNC(=O)C3)nn2-c2ccccc2OC(C)C)c1 [Example 378] | 7.68
CCCc1cccc(-c2cc(NC(=O)C3CNC(=O)C3CC)nn2-c2ccccc2)c1 (single isomer, unassigned) [Example 309] | 7.31
O=C1C[C@H](C(=O)Nc2cc(-c3cc(F)cc(COCC(F)(F)F)c3)n(-c3ccc(Cl)cc3)n2)CN1 [Example 512] | 7.80
O=C1NC[C@H](C(=O)Nc2cc(-c3cccc(COCC(F)(F)F)c3)n(-c3ccccc3)n2)O1 [Example 305] | 7.54
O=C1C[C@H](C(=O)Nc2cc(-c3cc(F)cc(COCC(F)(F)F)c3)n(-c3ccc(F)cc3)n2)CN1 [Example 248, (S)-5-oxopyrrolidine-3-carboxylic acid{1-(4-fluorophenyl)-5-[3-fluoro-5-(2,2,2-trifluoroethoxymethyl)phenyl]-1H-pyrazol-3-yl}amide] | 7.60
CCOc1cc(F)cc(-n2nc(NC(=O)[C@@H]3CNC(=O)C3)cc2-c2cccc(COCC(F)(F)F)c2)c1 [Example 528] | 8.44
C[C@@H](OCc1cccc(-c2cc(NC(=O)[C@@H]3CNC(=O)C3)nn2-c2cccc(F)c2)c1)C(F)(F)F [Example 469] | 8.28
O=C1NC[C@@H](C(=O)Nc2cc(-c3cccc(OC(F)(F)F)c3)n(-c3ccccc3)n2)N1 [Example 266] | 7.35
O=C1C[C@H](C(=O)Nc2cc(-c3cccc(COCC(F)(F)F)c3)n(-c3ccccc3)n2)CN1 [Example 279] | 7.76

Same assay, conditions: CHO-K1, at 0.1 uM

SMILES | inhibition at 0.1 µM [%]
CCCc1cccc(-c2cc(NC(=O)C3CC(=O)NC3C)nn2-c2ccccc2)c1 (stereo not drawn) [Example 405] | 29
CS(=O)(=O)c1cccc(-n2nc(NC(=O)[C@@H]3CNC(=O)C3)cc2-c2cccc(COCC(F)(F)F)c2)c1 [Example 530] | 40
O=C1C[C@H](C(=O)Nc2cc(-c3cccc(C#CC4CC4)c3)n(-c3ccccc3)n2)CN1 [Example 532] | 26
O=C1C[C@H](C(=O)Nc2cc(-c3cccc(S(=O)(=O)CCC(F)(F)F)c3)n(-c3ccccc3)n2)CN1 [Example 551] | 42

Same assay, conditions: CHO-K1, at 0.3 uM

SMILES | inhibition at 0.3 µM [%]
O=C1C[C@@H](C(=O)Nc2cc(-c3cccc(OC(F)(F)F)c3)n(-c3ccc(F)cc3Cl)n2)CN1 [Example 192] | 6

Same assay, conditions: CHO-K1, at 1 uM

SMILES | inhibition at 1 µM [%]
O=C1C[C@@H](C(=O)Nc2cc(-c3cccc(OC(F)(F)F)c3)n(-c3ccc(Cl)c(F)c3)n2)CN1 [Example 174] | 9

Same assay, conditions: at 0.1 uM

SMILES | human SGLT1 % Inhibition [%]
CCCc1cccc(-c2cc(NC(=O)C3CNC(=O)C(C)C3)nn2-c2ccccc2)c1 (racemic) [Example 293] | 27
